Measurements as given in US8592181B2, “Brazzein variant having higher sweetness and method for preparing multi-variant” (Chung-Ang University Industry-Academy Cooperation Foundation, priority 2009, dated 2013).

System: human sense of taste
Assay: Sweetness measured by human sense of taste (20 trained subjects, minimum concentration at which sweetness is first sensed)
Format: in vivo
Conditions: for Multiples of increased sweetness to minor-type brazzein / Minimum stimulation level in which one senses sweetness for first time: primary brazzein variants; for Multiples of increased sweetness to minor-type brazzein: relative to minor-type brazzein; for Minimum stimulation level in which one senses sweetness for first time: 20 trained subjects; for Sweetness ratios of sucrose (1 g/100 ml) to primary brazzein variants (minor-type brazzein: 2000): relative to 1 g/100 ml sucrose threshold
Method: Since the recombinant brazzein according to the present invention is not a sucrose-based compound having a cyclic ring, the sweetness of the recombinant brazzein was not measured using a saccharometer. Therefore, the activity of the recombinant brazzein was measured using the human sense of taste. Sugar content measurement was performed on 20 subjects who were trained to feel substantially the same minimum concentration of sucrose in which they could sense sweetness using a sucrose solution. That is, a concentration of each brazzein variant in which the subjects could sense sweetness for the first time was measured. Also, a sweetness ratio of the sucrose solution to the wild-type brazzein was 1 g/100 ml, which was a minimum stimulation level in which the subjects could sense sweetness. Also, a sweetness ratio of the minor-type brazzein protein to the wild-type brazzein was 500 μg/100 ml, which was a minimum stimulation level in which the subjects could sense sweetness. Therefore, the sweetness was calculated using the sweetness ratios (That is, 1/0.0005=2000 for the minor-type brazzein).
Also, the brazzein multi-variants were measured for activity (sweetness) in the same manner as in Example 3-1.

Substance | Multiples of increased sweetness to minor-type brazzein | Minimum stimulation level in which one senses sweetness for first time | Sweetness ratios of sucrose (1 g/100 ml) to primary brazzein variants (minor-type brazzein: 2000)
K5H: primary brazzein variant: Lys at position 5 of minor-type brazzein substituted with His (DKCKHVYENYPVSKCQLANQCNYDCKLRKHARSGECFYDEKRNLQCICDYCEY; Brazzein(K5H)) [Brazzein K5H] | 0.05 | 10,000 μg/100 ml | 100
K5R: primary brazzein variant: Lys at position 5 of minor-type brazzein substituted with Arg (DKCKRVYENYPVSKCQLANQCNYDCKLRKHARSGECFYDEKRNLQCICDYCEY; Brazzein(K5R)) [Brazzein K5R] | 0.05 | 10,000 μg/100 ml | 100
K29A: primary brazzein variant: Lys at position 29 of minor-type brazzein substituted with Ala (DKCKKVYENYPVSKCQLANQCNYDCKLRAHARSGECFYDEKRNLQCICDYCEY; Brazzein(K29A)) [Brazzein K29A] | 0.05 | 10,000 μg/100 ml | 100
K29D: primary brazzein variant: Lys at position 29 of minor-type brazzein substituted with Asp (DKCKKVYENYPVSKCQLANQCNYDCKLRDHARSGECFYDEKRNLQCICDYCEY; Brazzein(K29D)) [Brazzein K29D] | 0.05 | 10,000 μg/100 ml | 100
K29E: primary brazzein variant: Lys at position 29 of minor-type brazzein substituted with Glu (DKCKKVYENYPVSKCQLANQCNYDCKLREHARSGECFYDEKRNLQCICDYCEY; Brazzein(K29E)) [Brazzein K29E] | 0.05 | 10,000 μg/100 ml | 100
K29H: primary brazzein variant: Lys at position 29 of minor-type brazzein substituted with His (DKCKKVYENYPVSKCQLANQCNYDCKLRHHARSGECFYDEKRNLQCICDYCEY; Brazzein(K29H)) [Brazzein K29H] | 0.05 | 10,000 μg/100 ml | 100
K29R: primary brazzein variant: Lys at position 29 of minor-type brazzein substituted with Arg (DKCKKVYENYPVSKCQLANQCNYDCKLRRHARSGECFYDEKRNLQCICDYCEY; Brazzein(K29R)) [Brazzein K29R] | 0.05 | 10,000 μg/100 ml | 100
R32A: primary brazzein variant: Arg at position 32 of minor-type brazzein substituted with Ala (DKCKKVYENYPVSKCQLANQCNYDCKLRKHAASGECFYDEKRNLQCICDYCEY; Brazzein(R32A)) [Brazzein R32A] | 0.08 | 6,000 μg/100 ml | 167
R32D: primary brazzein variant: Arg at position 32 of minor-type brazzein substituted with Asp (DKCKKVYENYPVSKCQLANQCNYDCKLRKHADSGECFYDEKRNLQCICDYCEY; Brazzein(R32D)) [Brazzein R32D] | 0.05 | 10,000 μg/100 ml | 100
R32E: primary brazzein variant: Arg at position 32 of minor-type brazzein substituted with Glu (DKCKKVYENYPVSKCQLANQCNYDCKLRKHAESGECFYDEKRNLQCICDYCEY; Brazzein(R32E)) [Brazzein R32E] | 0.05 | 10,000 μg/100 ml | 100
R32H: primary brazzein variant: Arg at position 32 of minor-type brazzein substituted with His (DKCKKVYENYPVSKCQLANQCNYDCKLRKHAHSGECFYDEKRNLQCICDYCEY; Brazzein(R32H)) [Brazzein R32H] | 0.16 | 3,000 μg/100 ml | 334
R32K: primary brazzein variant: Arg at position 32 of minor-type brazzein substituted with Lys (DKCKKVYENYPVSKCQLANQCNYDCKLRKHAKSGECFYDEKRNLQCICDYCEY; Brazzein(R32K)) [Brazzein R32K] | 0.16 | 3,000 μg/100 ml | 334
R42A: primary brazzein variant: Arg at position 42 of minor-type brazzein substituted with Ala (DKCKKVYENYPVSKCQLANQCNYDCKLRKHARSGECFYDEKANLQCICDYCEY; Brazzein(R42A)) [Brazzein R42A] | 0.05 | 10,000 μg/100 ml | 100
R42D: primary brazzein variant: Arg at position 42 of minor-type brazzein substituted with Asp (DKCKKVYENYPVSKCQLANQCNYDCKLRKHARSGECFYDEKDNLQCICDYCEY; Brazzein(R42D)) [Brazzein R42D] | 0.05 | 10,000 μg/100 ml | 100
R42E: primary brazzein variant: Arg at position 42 of minor-type brazzein substituted with Glu (DKCKKVYENYPVSKCQLANQCNYDCKLRKHARSGECFYDEKENLQCICDYCEY; Brazzein(R42E)) [Brazzein R42E] | 0.05 | 10,000 μg/100 ml | 100
R42H: primary brazzein variant: Arg at position 42 of minor-type brazzein substituted with His (DKCKKVYENYPVSKCQLANQCNYDCKLRKHARSGECFYDEKHNLQCICDYCEY; Brazzein(R42H)) [Brazzein R42H] | 0.16 | 3,000 μg/100 ml | 334
R42K: primary brazzein variant: Arg at position 42 of minor-type brazzein substituted with Lys (DKCKKVYENYPVSKCQLANQCNYDCKLRKHARSGECFYDEKKNLQCICDYCEY; Brazzein(R42K)) [Brazzein R42K] | 0.16 | 3,000 μg/100 ml | 334
